Laboratory results: the NIST ThermoML archive (doi:10.1007/s10765-012-1233-x)

Details: Liquid; for viscosity: Falling or rolling sphere viscometry; for mass density: Vibrating tube method; for thermal conductivity: Hot wire method

CCCCCCn1cc[n+](C)c1.F[B-](F)(F)F [1-hexyl-3-methylimidazolium tetrafluoroborate]
Details	mass density [kg/m3]	thermal conductivity [W/m/K]	viscosity [mPa·s]
293.15 K, 100 kPa	1148.6	–	286
293.15 K, 5000 kPa	1151.2	–	302
293.15 K, 10000 kPa	1153.5	–	318
293.15 K, 15000 kPa	1155.8	–	345
293.15 K, 20000 kPa	1158.2	–	372
294.2 K, 100 kPa	–	0.166	–
294.2 K, 10000 kPa	–	0.168	–
294.2 K, 20000 kPa	–	0.17	–
313.15 K, 100 kPa	1134.1	–	92.9
313.15 K, 5000 kPa	1136.7	–	98.7
313.15 K, 10000 kPa	1139.4	–	104
313.15 K, 15000 kPa	1141.8	–	109
313.15 K, 20000 kPa	1144.2	–	115
314.3 K, 100 kPa	–	0.165	–
314.3 K, 10000 kPa	–	0.168	–
314.3 K, 20000 kPa	–	0.169	–
333.15 K, 100 kPa	1120.5	–	40.4
333.15 K, 5000 kPa	1123.1	–	42.5
333.15 K, 10000 kPa	1125.8	–	44.4
333.15 K, 15000 kPa	1128.5	–	45.5
333.15 K, 20000 kPa	1131.1	–	48.2
334.4 K, 100 kPa	–	0.164	–
334.4 K, 10000 kPa	–	0.167	–
334.4 K, 20000 kPa	–	0.169	–
353.15 K, 100 kPa	1107.1	–	21.2
353.15 K, 5000 kPa	1109.9	–	22.3
353.15 K, 10000 kPa	1112.7	–	22.7
353.15 K, 15000 kPa	1115.5	–	23.9
353.15 K, 20000 kPa	1118.3	–	24.3

CCCCCCCC[n+]1ccn(C)c1.F[B-](F)(F)F [1-methyl-3-octylimidazolium tetrafluoroborate]
Details	mass density [kg/m3]	thermal conductivity [W/m/K]	viscosity [mPa·s]
293.15 K, 100 kPa	1107.1	–	472
293.15 K, 5000 kPa	1109.7	–	510
293.15 K, 10000 kPa	1112.2	–	537
293.15 K, 15000 kPa	1114.6	–	572
293.15 K, 20000 kPa	1117	–	649
294.2 K, 100 kPa	–	0.164	–
294.2 K, 10000 kPa	–	0.165	–
294.2 K, 20000 kPa	–	0.167	–
313.15 K, 100 kPa	1093.5	–	146
313.15 K, 5000 kPa	1096.1	–	157
313.15 K, 10000 kPa	1098.8	–	166
313.15 K, 15000 kPa	1101.4	–	175
313.15 K, 20000 kPa	1103.9	–	188
314.3 K, 100 kPa	–	0.163	–
314.3 K, 10000 kPa	–	0.164	–
314.3 K, 20000 kPa	–	0.166	–
333.15 K, 100 kPa	1079.8	–	58
333.15 K, 5000 kPa	1082.6	–	60.6
333.15 K, 10000 kPa	1085.4	–	63.6
333.15 K, 15000 kPa	1088.1	–	66.4
333.15 K, 20000 kPa	1090.8	–	69.8
334.4 K, 100 kPa	–	0.16	–
334.4 K, 10000 kPa	–	0.162	–
334.4 K, 20000 kPa	–	0.164	–
353.15 K, 100 kPa	1066.8	–	28.1
353.15 K, 5000 kPa	1069.7	–	29.8
353.15 K, 10000 kPa	1072.7	–	30.8
353.15 K, 15000 kPa	1075.5	–	32.1
353.15 K, 20000 kPa	1078.3	–	33.4
